According to patent US20150004261A1, “Rhizoma Arisaematis Extracts and Uses Thereof for Wound-Healing Effects” (THE HONG KONG UNIVERSITY OF SCIENCE AND TECHNOLOGY, priority 2011, published 2015):

Test system: adult human keratinocytes
Assay: In-vitro scratch wound-healing assay
Type: cell-based
Conditions: for closure of in vitro scratch wound gap: day 4, Example 9, FIG. 8B
Protocol: Human neonatal or adult keratinocytes late population doubling time (PD≧15) were trypsinized and seeded onto 6-well tissue culture plates (Falcon) at a density of 3×10^6 cells/well in HKGS (Cascade Biologics) and EpiLife (Cascade Biologics). After an overnight incubation in a 5% CO2 and 37° C. chamber, a bisecting scratch was made with a sterile p1000 micropipette tip and the cells were washed with PBS twice, and then replaced with the basal medium without the supplement for the duration of the assay.
Total extract, fractions and compounds of Rhizoma arisaematis were diluted in the basal medium without the supplement and added to the wells. EGF (Sigma) at 50 ng/mL was used as positive control, and DMSO (0.1%) was used as a vehicle control.
For each scratch, two consecutive fields were selected using the following criteria: relatively little cell debris within the scratch; even scratch, with straight edges; both edges visible under a single field using the 10× objective; fields not too close to either end of the scratch. The pictures were taken from day 1 for five consecutive days. The medium and the extracts were replenished daily for the duration of the assay.
To examine the efficacy of the herb Rhizoma arisaematis (RA) in in vitro closure of scratch wounds, human keratinocytes were incubated with the crude extract (RA-T) or different fractions of RA (100 μg/mL).
To examine the efficacy of the WA sub-fractions of RA in closing in vitro scratch wounds, RA-WA1 and RA-WA2 (1 μg/mL and 10 μg/mL) were tested using human keratinocytes. The scratch assay was performed using the procedures as described in Example 1. RA-WA1 and RA-WA2 at 1 μg/mL and 10 μg/mL were evaluated for their ability to close in vitro wound gap.
To examine the wound-healing effects, 3-O-(9,12-octadecadienoyl)-glyceryl-β-D-galactopyranoside (G192-C07) isolated from the BU fraction of RA (FIG. 8A) was incubated with human keratinocytes. The scratch assay was performed as described in Examples 1 and 5. G192-C07 at 1, 3, 10, and 30 μg/mL were evaluated for their ability to close in vitro wound gap. Epidermal growth factor (EGF, 10 ng/mL) and 0.1% DMSO were used as a positive and a vehicle control, respectively. Photographs of the wounds were taken immediately after the scratch and on day 4.

Molecule	closure of in vitro scratch wound gap (1 μM)	closure of in vitro scratch wound gap (3 μM)	closure of in vitro scratch wound gap (10 μM)	closure of in vitro scratch wound gap (30 μM)	closure of in vitro scratch wound gap (positive control, 10 ng/mL)	closure of in vitro scratch wounds (positive control, 50 ng/mL, Example 1, FIG. 1)
CCCCC/C=C\C/C=C\CCCCCCCC(=O)OCC(O)CO[C@@H]1O[C@H](CO)[C@H](O)[C@H](O)[C@H]1O (stereo partly drawn) [Compound G192-C07, 3-O-(9Z,12Z-octadecadienoyl)-glyceryl-β-D-galactopyranoside]	partly closed the wound gap	partly closed the wound gap	partly closed the wound gap	fully closed the wounds by day 4		
EGF: Epidermal growth factor (Sigma), positive control (NSDSECPLSHDGYCLHDGVCMYIEALDKYACNCVVGYIGERCQYRDLKWWELR; Epidermal growth factor; UniProt P01133 971-1023, looked up) [reference compound]					fully closed the wounds by day 4	closed the wounds by day 2
